# Source: ChEMBL document CHEMBL5131385, “Novel piperazine based benzamide derivatives as potential anti-glioblastoma agents inhibiting cell proliferation and cell cycle progression” (Eur J Med Chem, 2022)
# Activity calls are given as the source filed them. The calls are words filed in the database; no cut-off is given here.
# Experiments:
# [1] = test system: U-87MG ATCC; assay: Antitumor activity against human U-87 MG cells xenografted in BALB/c mouse assessed as decrease in tumor volume at 10 mg/kg,ip bid for 1 month; assay type: functional, organism-based; details: time 1.0 months
# [2] = test system: U-87MG ATCC; assay: Antiproliferative activity against human U-87 MG cells assessed as release of LDH in supernatant and measured after 72 hrs by microplate reader assay; assay type: functional, cell-based; details: DDE = dose-dependent effect
# [3] = Half life in Sprague-Dawley rat brain at 100 mg/kg, ip and measured upto 240 mins by LC-MS analysis; assay type: ADME, organism-based
# [4] = Antiproliferative activity against human U-87 MG cells assessed as inhibition of cell proliferation measured after 72 hrs by CCK8 assay; assay type: functional, cell-based, U-87MG ATCC
# [5] = Tmax in Sprague-Dawley rat brain at 100 mg/kg, ip and measured upto 240 mins by LC-MS analysis; assay type: ADME, organism-based
# [6] = Induction of apoptosis in human U-87 MG cells assessed as early apoptotic cells at 0.075 uM incubated for 72 hrs by Annexin V-FITC/PI staining based flow cytometry method (reference value: 2.53 %); assay type: functional, U-87MG ATCC
# [7] = test system: U-251; assay: Downregulation of CDK4 gene expression in human U-251 cells at 0.075 to 1.2 uM measured after 72 hrs by western blot analysis; assay type: functional, cell-based; details: dose 0.075-1.2 µM
# [8] = test system: U-251; assay: Induction of apoptosis in human U-251 cells assessed as viable cells at 1.50 uM incubated for 72 hrs by Annexin V-FITC/PI staining based flow cytometry method (reference value: 96.22 %); assay type: functional; details: read-out: Activity
# [9] = Antitumor activity against human U-87 MG cells xenografted in BALB/c mouse assessed as tumor growth inhibition at 10 mg/kg,ip bid for 1 month; assay type: functional, U-87MG ATCC; details: 730 h, time 1 months, read-out: TGI
# [10] = test system: U-251; assay: Antiproliferative activity against human U-251 cells assessed as inhibition of cell proliferation upto 72 hrs by CCK8 assay; assay type: functional, cell-based; details: TDE = time-dependent effect
# [11] = test system: U-251; assay: Induction of apoptosis in human U-251 cells assessed as early apoptotic cells at 0.375 uM incubated for 72 hrs by Annexin V-FITC/PI staining based flow cytometry method (Rvb =1.96 %); assay type: functional
# [12] = test system: U-251; assay: Induction of apoptosis in human U-251 cells assessed as necrotic cells at 0.375 uM incubated for 72 hrs by Annexin V-FITC/PI staining based flow cytometry method (Rvb =0.51 %); assay type: functional
# [13] = AUC (0 to infinity) in Sprague-Dawley rat plasma at 100 mg/kg, ip and measured upto 240 mins by LC-MS analysis; assay type: ADME, organism-based; parameters: time < 240 min, dose 100 mg/kg, route ip
# [14] = Half life in Sprague-Dawley rat plasma at 100 mg/kg, ip and measured upto 240 mins by LC-MS analysis; assay type: ADME, organism-based
# [15] = Cmax in Sprague-Dawley rat plasma at 100 mg/kg, ip and measured upto 240 mins by LC-MS analysis; assay type: ADME, organism-based; parameters: dose 100 mg/kg, time < 240 min, route ip
# [16] = Induction of apoptosis in human U-87 MG cells assessed as necrotic cells at 1.20 uM incubated for 72 hrs by Annexin V-FITC/PI staining based flow cytometry method (reference value: 0.21 %); assay type: functional, U-87MG ATCC; details: dose 1.2 µM
# [17] = test system: U-87MG ATCC; assay: Antiproliferative activity against human U-87 MG cells assessed as inhibition of cell proliferation and measured upto 72 hrs by CCK8 assay; assay type: functional, cell-based; details: TDE = time-dependent effect
# [18] = test system: U-87MG ATCC; assay: Antimigratory activity in human U-87 MG cells assessed as inhibition of cell migration by measuring wound closure at 0.125 to 0.50 uM and measured after 24 hrs by transwell migration assay; assay type: functional, cell-based; details: dose 0.125-0.5 µM, DDE = dose-dependent effect
# [19] = Induction of apoptosis in human U-87 MG cells assessed as viable cells at 0.075 uM incubated for 72 hrs by Annexin V-FITC/PI staining based flow cytometry method (reference value: 96.84 %); assay type: functional, U-87MG ATCC; details: read-out: Activity
# [20] = test system: U-251; assay: Induction of apoptosis in human U-251 cells assessed as enlargement of intracellular space at 0.375 to 6 uM measured after 72 hrs by Giemsa staining based microscopic analysis; assay type: functional, cell-based; details: dose 0.375-6 µM
# [21] = test system: U-87MG ATCC; assay: Induction of apoptosis in human U-87 MG cells assessed as reduction in cell count at 0.075 to 1.20 uM measured after 72 hrs by Giemsa staining based microscopic analysis; assay type: functional; details: dose 0.075-1.2 µM
# [22] = test system: U-87MG ATCC; assay: Downregulation of pRb gene expression in human U-87 MG cells at 0.075 to 1.2 uM measured after 72 hrs by western blot analysis; assay type: functional, cell-based; details: dose 0.075-1.2 µM
# [23] = Induction of apoptosis in human U-87 MG cells assessed as late apoptotic cells at 0.30 uM incubated for 72 hrs by Annexin V-FITC/PI staining based flow cytometry method (reference value: 0.42 %); assay type: functional, U-87MG ATCC; details: dose 0.3 µM
# [24] = test system: U-251; assay: Downregulation of pRb gene expression in human U-251 cells at 0.075 to 1.2 uM measured after 72 hrs by western blot analysis; assay type: functional, cell-based; details: dose 0.075-1.2 µM
# [25] = test system: U-87MG ATCC; assay: Induction of apoptosis in human U-87 MG cells assessed as morphological changes at 0.075 to 1.20 uM measured after 72 hrs by Giemsa staining based microscopic analysis; assay type: functional, cell-based; details: dose 0.075-1.2 µM
# [26] = Induction of apoptosis in human U-87 MG cells assessed as viable cells at 0.30 uM incubated for 72 hrs by Annexin V-FITC/PI staining based flow cytometry method (reference value: 96.84 %); assay type: functional, U-87MG ATCC; details: read-out: Activity
# [27] = test system: U-87MG ATCC; assay: Antitumor activity against human U-87 MG cells xenografted in BALB/c mouse assessed as decrease in tumor weight at 10 mg/kg,ip bid for 1 month; assay type: functional, organism-based; details: time 1.0 months
# [28] = Acute toxicity in Kunming mouse assessed as pathological changes in heart at 600 mg/kg, ip measured after 24 hrs by H and E staining analysis; assay type: organism-based; details: in vivo
# [29] = test system: U-251; assay: Induction of apoptosis in human U-251 cells assessed as morphological changes at 0.375 to 6 uM measured after 72 hrs by Giemsa staining based microscopic analysis; assay type: functional, cell-based; details: dose 0.375-6 µM
# [30] = test system: U-251; assay: Induction of cell cycle arrest in human U-251 cells assessed as decrease in accumulation at G2/M phase at 0.75 to 3 uM measured after 72 hrs by flow cytometry; assay type: functional, cell-based; details: dose 0.75-3 µM, DDE = dose-dependent effect
# [31] = Induction of apoptosis in human U-87 MG cells assessed as necrotic cells at 0.075 uM incubated for 72 hrs by Annexin V-FITC/PI staining based flow cytometry method (reference value: 0.21 %); assay type: functional, U-87MG ATCC
# [32] = test system: U-251; assay: Downregulation of E2F gene expression in human U-251 cells at 0.075 to 1.2 uM measured after 72 hrs by western blot analysis; assay type: functional, cell-based; details: dose 0.075-1.2 µM
# [33] = test system: U-251; assay: Induction of apoptosis in human U-251 cells assessed as viable cells at 0.375 uM incubated for 72 hrs by Annexin V-FITC/PI staining based flow cytometry method (reference value: 96.22 %); assay type: functional; details: read-out: Activity
# [34] = test system: U-87MG ATCC; assay: Antimigratory activity in human U-87 MG cells assessed as inhibition of cell migration by measuring wound closure at 0.125 to 0.50 uM and measured after 24 hrs by wound healing assay; assay type: functional, cell-based; details: dose 0.125-0.5 µM, DDE = dose-dependent effect
# [35] = test system: U-251; assay: Induction of cell cycle arrest in human U-251 cells assessed as accumulation at G0/G1 phase at 0.75 to 3 uM and measured after 72 hrs by flow cytometry; assay type: functional, cell-based; details: dose 0.75-3 µM, DDE = dose-dependent effect
# [36] = test system: U-251; assay: Antimigratory activity in human U-251 cells assessed as inhibition of cell migration by measuring wound closure at 0.25 to 1.0 uM and measured after 24 hrs by wound healing assay; assay type: functional, cell-based; details: dose 0.25-1 µM, DDE = dose-dependent effect
smiles,measurement,setting,value
COCCN1CCN(c2ccc(F)cc2C(=O)Nc2ccc(CNC(=O)OCc3cccnc3)cc2)CC1,Activity,[1],Active
same,Activity,[2],Dde
same,half-life,[3],43.8 min
same,IC50,[4],290 nM
same,Tmax,[5],30 min
same,Activity,[6],2.76%
same,Activity,[7],Active
same,viability at 1.5 µM,[8],93.7%
same,inhibition in vivo at 10 mg/kg,[9],70.5%
same,Activity,[10],Tde
same,Activity,[11],1.9%
same,Activity,[12],0.53%
same,AUC(0-inf),[13],95500 ng·h/mL
same,half-life,[14],52.8 min
same,Cmax,[15],71.7 µg/mL
same,Activity,[16],1.76%
same,Activity,[17],Tde
same,Activity,[18],Dde
same,viability at 0.075 µM,[19],96.5%
same,Activity,[20],Active
same,Activity,[21],Active
same,Activity,[22],Active
same,Activity,[23],0.95%
same,Activity,[24],Active
same,Activity,[25],Active
same,viability at 0.3 µM,[26],94.2%
same,Activity,[27],Active
same,Activity,[28],Non-Toxic
same,Activity,[29],Active
same,Activity,[30],Dde
same,Activity,[31],0.33%
same,Activity,[32],Active
same,viability at 0.375 µM,[33],95.9%
same,Activity,[34],Dde
same,Activity,[35],Dde
same,Activity,[36],Dde
